The source of these data is patent EP2766361B1, “8-CARBAMOYL-2-(2,3-DISUBSTITUTED PYRID-6-YL)-1,2,3,4-TETRAHYDROISOQUINOLINE DERIVATIVES AS APOPTOSIS-INDUCING AGENTS FOR THE TREATMENT OF CANCER AND IMMUNE AND AUTOIMMUNE DISEASES” (priority 2011, dated 2013).

This test has as its system mouse FL5.12 cells transfected with Bcl-xL. The experiment in a line: FL5.12 cellular assay (cell viability, CellTiter-Glo). The format is cell-based. Particulars: IL-3-depleted, 3% FBS assay media, 24 hours, read-out: FL5.12 Bcl-xL, -IL3, EC50. The protocol: Cell viability was assayed using the CellTiter-Glo assay (Promega Corp., Madison, WI) according to the manufacturer instructions. Individual determinations were the result of duplicate values. […] Table 2. In Vitro Data
In general terms: ATP-based viability assays read luminescence as a measure of living cells.
In the case of `Cc1nn(CC23CC4CC(CC(C4)C2)C3)c(C)c1-c1ccc(N2CCc3cccc(C(=O)Nc4nc5ccccc5s4)c3C2)nc1C(=O)O` [Example 2, 6-[8-(1,3-benzothiazol-2-ylcarbamoyl)-3,4-dihydroisoquinolin-2(1H)-yl]-3-[3,5-dimethyl-1-(tricyclo[3.3.1.1^3,7]dec-1-ylmethyl)-1H-pyrazol-4-yl]pyridine-2-carboxylic acid], the EC50 (commonly the concentration giving half of the maximal effect) is less than 1 nM.
Turning to `O=C(Nc1nc2ccccc2s1)c1cccc2c1CN(c1ccc(-c3cnn(CC4CCC5(CCC5)CC4)c3)c(C(=O)O)n1)CC2` [Example 4, 6-[8-(1,3-benzothiazol-2-ylcarbamoyl)-3,4-dihydroisoquinolin-2(1H)-yl]-3-[1-(spiro[3.5]non-7-ylmethyl)-1H-pyrazol-4-yl]pyridine-2-carboxylic acid], the EC50 was found to be 918 nM.
On to `CC12CC3CC(C)(C1)CC(Cn1cc(-c4ccc(N5CCc6cccc(C(=O)Nc7nc8ccccc8s7)c6C5)nc4C(=O)O)cn1)(C3)C2` [Example 5, 6-[8-(1,3-benzothiazol-2-ylcarbamoyl)-3,4-dihydroisoquinolin-2(1H)-yl]-3-(1-{[3,5-dimethyltricyclo[3.3.1.1^3,7]dec-1-yl]methyl}-1H-pyrazol-4-yl)pyridine-2-carboxylic acid], for which the EC50 came out at 2 nM.
Consider `O=C(Nc1nc2ccccc2s1)c1cccc2c1CN(c1ccc(-c3cnn(CC45CC6CC(CC(O)(C6)C4)C5)c3)c(C(=O)O)n1)CC2` [Example 6, 6-[8-(1,3-benzothiazol-2-ylcarbamoyl)-3,4-dihydroisoquinolin-2(1H)-yl]-3-(1-{[3-hydroxytricyclo[3.3.1.1^3,7]dec-1-yl]methyl}-1H-pyrazol-4-yl)pyridine-2-carboxylic acid], for which the EC50 was 146 nM.
`COC12CC3CC(CC(Cn4cc(-c5ccc(N6CCc7cccc(C(=O)Nc8nc9ccccc9s8)c7C6)nc5C(=O)O)cn4)(C3)C1)C2` [Example 7, 6-[8-(1,3-benzothiazol-2-ylcarbamoyl)-3,4-dihydroisoquinolin-2(1H)-yl]-3-(1-{[3-methoxytricyclo[3.3.1.1^3,7]dec-1-yl]methyl}-1H-pyrazol-4-yl)pyridine-2-carboxylic acid]: the EC50 was 37 nM.
Take `COCCOC12CC3CC(CC(Cn4cc(-c5ccc(N6CCc7cccc(C(=O)Nc8nc9ccccc9s8)c7C6)nc5C(=O)O)cn4)(C3)C1)C2` [Example 8, 6-[8-(1,3-benzothiazol-2-ylcarbamoyl)-3,4-dihydroisoquinolin-2(1H)-yl]-3-(1-{[3-(2-methoxyethoxy)tricyclo[3.3.1.1^3,7]dec-1-yl]methyl}-1H-pyrazol-4-yl)pyridine-2-carboxylic acid]: the EC50 is 147 nM.
Regarding `CC12CC3(C)CC(C)(C1)CC(Cn1cc(-c4ccc(N5CCc6cccc(C(=O)Nc7nc8ccccc8s7)c6C5)nc4C(=O)O)cn1)(C2)C3` [Example 9, 6-[8-(1,3-benzothiazol-2-ylcarbamoyl)-3,4-dihydroisoquinolin-2(1H)-yl]-3-{1-[(3,5,7-trimethyltricyclo[3.3.1.1^3,7]dec-1-yl)methyl]-1H-pyrazol-4-yl}pyridine-2-carboxylic acid], the EC50 stood at 3 nM.
In the case of `O=C(Nc1nc2ccccc2s1)c1cccc2c1CN(c1ccc(-c3cnn(CC45CC6CC(CC(Br)(C6)C4)C5)c3)c(C(=O)O)n1)CC2` [Example 11, 6-[8-(1,3-benzothiazol-2-ylcarbamoyl)-3,4-dihydroisoquinolin-2(1H)-yl]-3-(1-{[3-bromotricyclo[3.3.1.1^3,7]dec-1-yl]methyl}-1H-pyrazol-4-yl)pyridine-2-carboxylic acid], the concentration giving a half-maximal response (EC50) is 11 nM.
To `CC(C)OC12CC3CC(CC(Cn4cc(-c5ccc(N6CCc7cccc(C(=O)Nc8nc9ccccc9s8)c7C6)nc5C(=O)O)cn4)(C3)C1)C2` [Example 12, 6-[8-(1,3-benzothiazol-2-ylcarbamoyl)-3,4-dihydroisoquinolin-2(1H)-yl]-3-(1-{[3-(propan-2-yloxy)tricyclo[3.3.1.1^3,7]dec-1-yl]methyl}-1H-pyrazol-4-yl)pyridine-2-carboxylic acid] belongs 24 nM; to `Cc1c(-c2ccc(N3Cc4c(C(=O)Nc5nc6ccccc6s5)cccc4C(C)(C)C3)nc2C(=O)O)cnn1CC12CC3CC(CC(C3)C1)C2` [Example 14, 6-[8-(1,3-benzothiazol-2-ylcarbamoyl)-4,4-dimethyl-3,4-dihydroisoquinolin-2(1H)-yl]-3-[5-methyl-1-(tricyclo[3.3.1.1^3,^7]dec-1-ylmethyl)-1H-pyrazol-4-yl]pyridine-2-carboxylic acid], less than 1 nM.
In the case of `O=C(Nc1nc2ccccc2s1)c1cccc2c1CN(c1ccc(-c3cnn(CC45CC6CC(C4)CC(N4CCOCC4)(C6)C5)c3)c(C(=O)O)n1)CC2` [Example 15, 6-[8-(1,3-benzothiazol-2-ylcarbamoyl)-3,4-dihydroisoquinolin-2(1H)-yl]-3-(1-{[3-(morpholin-4-yl)tricyclo[3.3.1.1^3,7]dec-1-yl]methyl}-1H-pyrazol-4-yl)pyridine-2-carboxylic acid], the EC50 came out at 110 nM.
To `Cc1c(-c2ccc(N3CCc4cccc(C(=O)Nc5nc6ccccc6s5)c4C3)nc2C(=O)NS(C)(=O)=O)cnn1CC12CC3CC(CC(C3)C1)C2` [Example 17, N-(1,3-benzothiazol-2-yl)-2-{6-[(methylsulfonyl)carbamoyl]-5-[5-methyl-1-(tricyclo[3.3.1.1^3,7]dec-1-ylmethyl)-1H-pyrazol-4-yl]pyridin-2-yl}-1,2,3,4-tetrahydroisoquinoline-8-carboxamide] belongs 1 nM; to `Cc1c(-c2ccc(N3CCc4cccc(C(=O)Nc5nc6ccccc6s5)c4C3)nc2-c2nn[nH]n2)cnn1CC12CC3CC(CC(C3)C1)C2` [Example 19, N-(1,3-benzothiazol-2-yl)-2-{5-[5-methyl-1-(tricyclo[3.3.1.1^3,7]dec-1-ylmethyl)-1H-pyrazol-4-yl]-6-(2H-tetrazol-5-yl)pyridin-2-yl}-1,2,3,4-tetrahydroisoquinoline-8-carboxamide], 3 nM.
Turning to `Cc1cc(OCC23CC4CC(CC(C4)C2)C3)ccc1-c1ccc(N2CCc3cccc(C(=O)Nc4nc5ccccc5s4)c3C2)nc1C(=O)O` [Example 20, 6-[8-(1,3-benzothiazol-2-ylcarbamoyl)-3,4-dihydroisoquinolin-2(1H)-yl]-3-{2-methyl-4-[tricyclo[3.3.1.1^3,7]dec-1-ylmethoxy]phenyl}pyridine-2-carboxylic acid], the EC50 was greater than 1000 nM.
In the case of `Cc1c(OCC23CC4CC(CC(C4)C2)C3)cccc1-c1ccc(N2CCc3cccc(C(=O)Nc4nc5ccccc5s4)c3C2)nc1C(=O)O` [Example 21, 6-[8-(1,3-benzothiazol-2-ylcarbamoyl)-3,4-dihydroisoquinolin-2(1H)-yl]-3-{2-methyl-3-[tricyclo[3.3.1.1^3,7]dec-1-ylmethoxy]phenyl}pyridine-2-carboxylic acid], the concentration giving a half-maximal response (EC50) worked out at 343 nM.
Then `O=C(Nc1nc2ccccc2s1)c1cccc2c1CN(c1ccc(-c3cccc(OCC45CC6CC(CC(C6)C4)C5)c3)c(C(=O)O)n1)CC2` [Example 22, 6-[8-(1,3-benzothiazol-2-ylcarbamoyl)-3,4-dihydroisoquinolin-2(1H)-yl]-3-{3-[tricyclo[3.3.1.1^3,7]dec-1-ylmethoxy]phenyl}pyridine-2-carboxylic acid], with greater than 1000 nM.
